Results as given in article PMC6135100 (Toxicology, 2017).
Like-named read-outs stand apart in the source and are kept apart here.

What was measured:
AR [1] = details: AR reference compounds; ref Kleinstreuer 2016; cited from earlier work
AR (full receptor) = AR (full receptor) (Homo sapiens, UniProt P10275); assay: qHTS AR-luciferase; type: cell-based; details: for AR-luc Efficacy / EC50: Table 3, mean ± SD, n=3; for AR-luc Efficacy / AR-luc Primary Assay Efficacy: relative to maximal efficacy of R1881; for EC50: read-out: AR-luc EC50; for AR-luc Primary Assay EC50 / AR-luc Primary Assay Efficacy: primary qHTS; for AR-luc Primary Assay EC50: Inactive = efficacy below 30% of R1881's activity
AR-LBD = biological target: T1, AR-LBD (Rattus norvegicus, UniProt P15207); assay: Fluorescence polarization AR competition binding assay
T1 sequence (P15207 651-882 limits assumed): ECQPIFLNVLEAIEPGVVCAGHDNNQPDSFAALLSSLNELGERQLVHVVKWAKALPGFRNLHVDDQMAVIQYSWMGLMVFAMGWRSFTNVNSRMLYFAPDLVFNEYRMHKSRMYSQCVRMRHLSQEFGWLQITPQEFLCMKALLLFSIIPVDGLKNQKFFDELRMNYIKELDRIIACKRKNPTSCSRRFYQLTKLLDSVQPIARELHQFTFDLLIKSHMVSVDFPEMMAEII

[2] = biological target: T2, rat AR ligand-binding domain (LBD) fused to the DNA-binding domain of GAL4 (Rattus norvegicus, UniProt P15207); assay: qHTS AR β-lactamase; type: cell-based; details: for AR-bla Primary Assay EC50: Inactive = efficacy below 30% of R1881's activity
T2 sequence (P15207 651-882 limits assumed): T1 sequence (P15207 651-882 limits assumed)

AR [3] = details: ref Tamaya et al. 1986; cited from earlier work
estrogen receptor = estrogen receptor (Homo sapiens, UniProt P03372); assay: Analogous estrogen receptor screens; type: cell-based; details: data not shown
rabbit = rabbit development study; ref Morinaga et al. 1996b; cited from earlier work

Sequence of AR (full receptor) (P10275 whole entry, the tested form may be a part): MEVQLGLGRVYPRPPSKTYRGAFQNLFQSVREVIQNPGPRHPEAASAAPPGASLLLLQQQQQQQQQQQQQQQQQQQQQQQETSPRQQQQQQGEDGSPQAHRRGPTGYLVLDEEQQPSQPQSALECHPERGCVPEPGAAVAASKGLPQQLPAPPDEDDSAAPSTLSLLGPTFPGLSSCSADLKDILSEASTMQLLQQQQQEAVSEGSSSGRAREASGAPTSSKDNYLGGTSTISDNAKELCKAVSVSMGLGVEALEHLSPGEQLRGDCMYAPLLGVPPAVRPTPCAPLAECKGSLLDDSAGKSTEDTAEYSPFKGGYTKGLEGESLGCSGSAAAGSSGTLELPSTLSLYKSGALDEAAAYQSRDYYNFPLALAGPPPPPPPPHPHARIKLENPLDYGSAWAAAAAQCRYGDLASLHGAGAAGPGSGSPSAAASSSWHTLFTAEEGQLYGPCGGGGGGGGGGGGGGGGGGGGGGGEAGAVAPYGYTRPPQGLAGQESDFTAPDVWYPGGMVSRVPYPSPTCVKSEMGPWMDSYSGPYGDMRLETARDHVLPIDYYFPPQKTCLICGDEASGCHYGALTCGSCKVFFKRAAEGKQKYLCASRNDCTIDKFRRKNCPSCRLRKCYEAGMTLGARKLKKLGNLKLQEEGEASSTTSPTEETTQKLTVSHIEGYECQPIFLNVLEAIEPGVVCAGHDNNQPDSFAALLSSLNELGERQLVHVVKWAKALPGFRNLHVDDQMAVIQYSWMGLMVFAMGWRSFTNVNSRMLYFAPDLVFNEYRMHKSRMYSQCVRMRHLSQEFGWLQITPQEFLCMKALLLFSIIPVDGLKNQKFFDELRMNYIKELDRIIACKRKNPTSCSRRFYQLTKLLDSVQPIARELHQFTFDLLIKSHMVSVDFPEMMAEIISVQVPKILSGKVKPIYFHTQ
Sequence of estrogen receptor (P03372 whole entry): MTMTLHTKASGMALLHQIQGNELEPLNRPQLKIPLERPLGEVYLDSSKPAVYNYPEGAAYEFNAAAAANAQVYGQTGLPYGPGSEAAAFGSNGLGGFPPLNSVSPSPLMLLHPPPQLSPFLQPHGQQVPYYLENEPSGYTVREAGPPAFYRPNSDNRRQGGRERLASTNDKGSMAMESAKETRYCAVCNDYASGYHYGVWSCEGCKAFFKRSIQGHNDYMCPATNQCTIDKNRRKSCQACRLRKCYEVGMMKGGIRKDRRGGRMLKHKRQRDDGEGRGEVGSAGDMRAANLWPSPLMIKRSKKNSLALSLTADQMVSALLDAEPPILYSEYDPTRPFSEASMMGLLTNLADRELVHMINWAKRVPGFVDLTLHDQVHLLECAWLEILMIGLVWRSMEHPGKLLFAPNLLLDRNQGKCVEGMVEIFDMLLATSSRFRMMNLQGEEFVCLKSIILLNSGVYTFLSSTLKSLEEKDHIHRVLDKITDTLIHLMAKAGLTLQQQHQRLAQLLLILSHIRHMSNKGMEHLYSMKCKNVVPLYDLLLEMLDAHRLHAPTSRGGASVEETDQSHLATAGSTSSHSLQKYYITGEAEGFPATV

SMILES	Known AR Activity (AR [1])	other results
CC1(C)NC(=O)N(c2ccc([N+](=O)[O-])c(C(F)(F)F)c2)C1=O [Nilutamide]	Inactive	–
C=C1C[C@H]2[C@@H]3C=C(C)C4=CC(=O)CC[C@]4(C)[C@H]3CC[C@]2(C)[C@@]1(OC(C)=O)C(C)=O [Melengestrol acetate]	–	AR-luc Efficacy (AR (full receptor)): 288.12 ± 44.83%; EC50 (AR (full receptor)): 0.017 ± 0.012 µM; IC50 (AR-LBD): 1.17 ± 0.2 µM; FP Binding Efficacy (AR-LBD; mean ± SD, n=3, printed as negative values): −124.24 ± 3.58%
Oc1ccc(/C=C/c2cc(O)cc(O)c2)cc1 [Resveratrol]	Inactive	AR-bla Primary Assay EC50 ([2]; primary qHTS): Inactive^b; AR-luc Primary Assay EC50 (AR (full receptor)): Inactive^b
C[C@]12CCC(=O)C=C1CC[C@@H]1[C@@H]2CC[C@@]2(C)[C@H]1CC[C@]2(C)O [Methyltestosterone]	Agonist	–
CC1(C)[C@@H](O[C@H]2O[C@H](C(=O)O)[C@@H](O)[C@H](O)[C@H]2O[C@@H]2O[C@H](C(=O)O)[C@@H](O)[C@H](O)[C@H]2O)CC[C@]2(C)[C@H]3C(=O)C=C4[C@@H]5C[C@@](C)(C(=O)O)CC[C@]5(C)CC[C@@]4(C)[C@]3(C)CC[C@@H]12 [Glycyrrhizin]	–	binding to AR, previously identified (AR [3]): weak binder of AR
C[C@]1(O)CC[C@H]2[C@@H]3CCC4=CC(=O)CCC4=C3C=C[C@@]21C [Methyltrienolone (R1881), Methyltrienolone]	Agonist	AR-bla Primary Assay Efficacy [2]: 0.00131 [131] %
Cc1oc(=O)oc1CN1CCN(c2cc3c(cc2F)c(=O)c(C(=O)O)c2n3C(C)S2)CC1 (stereo not shown) [Prulifloxacin]	–	activity in estrogen receptor screens (estrogen receptor): active; NOAEL for pregnancy (rabbit): 30 mg/kg; general toxicity NOAEL (rabbit): 10 mg/kg
CC(=O)O[C@]1(C(C)=O)CC[C@H]2[C@@H]3C=C(Cl)C4=CC(=O)[C@@H]5C[C@@H]5[C@]4(C)[C@H]3CC[C@@]21C [Cyproterone acetate]	Weak Agonist	–
C[C@]12CCC(=O)C=C1CC[C@@H]1[C@@H]2CC[C@]2(C)C(=O)CC[C@@H]12 [4-Androstenedione]	Agonist	–
CC(C)NC(=O)N1CC(=O)N(c2cc(Cl)cc(Cl)c2)C1=O [Iprodione]	Inactive	–
CN1C(=O)CN=C(c2ccccc2)c2cc([N+](=O)[O-])ccc21 [Nimetazepam, nimetazepam]	–	AR-luc Primary Assay Efficacy (AR (full receptor)): 470%
C#C[C@]1(OC(C)=O)CC[C@H]2[C@@H]3CCC4=CC(=O)CC[C@@H]4[C@H]3CC[C@@]21C [Norethindrone acetate]	Agonist	–
C#C[C@]1(O)CC[C@H]2[C@@H]3CCC4=CC(=O)CC[C@@H]4[C@H]3CC[C@@]21CC [Levonorgestrel]	Agonist	–
C[C@]12CC[C@H]3[C@@H](CCC4=CC(=O)CC[C@@H]43)[C@@H]1CC[C@@H]2O [Nandrolone]	Agonist	–
OC(c1ccc(Cl)cc1)(c1cncnc1)c1ccccc1Cl (stereo not shown) [Fenarimol]	Inactive	–
C#C[C@]1(O)CC[C@H]2[C@@H]3CCC4=C(CCC(=O)C4)[C@H]3CC[C@@]21C [Norethynodrel]	Agonist	–
CC(C)C(=O)Nc1ccc([N+](=O)[O-])c(C(F)(F)F)c1 [Flutamide]	Inactive	–
CCCN(CCOc1c(Cl)cc(Cl)cc1Cl)C(=O)n1ccnc1 [Prochloraz]	Inactive	–
CC/C(=C(\c1ccccc1)c1ccc(OCCN(C)C)cc1)c1ccccc1 [Tamoxifen]	Inactive	–
C[C@]12CC[C@H]3[C@@H](CCC4=CC(=O)CC[C@@]43C)[C@@H]1CC[C@@H]2O [Testosterone]	Agonist	–
C[C@]12C=CC3=C4CCC(=O)C=C4CCC3C1CC[C@@H]2O (stereo partly shown) [Trenbolone]	Agonist	AR-bla Primary Assay Efficacy ([2]; primary qHTS, relative to maximal efficacy of R1881): 105%; AR-luc Primary Assay Efficacy (AR (full receptor)): 122%
CCNc1nc(Cl)nc(NC(C)C)n1 [Atrazine]	Inactive	–
C#C[C@]1(O)CC[C@H]2[C@@H]3CCC4=CC(=O)CC[C@@H]4[C@H]3CC[C@@]21C [Norethindrone]	Agonist	–
COC(=O)Nc1nc2ccccc2[nH]1 [Carbendazim]	Inactive	AR-bla Primary Assay EC50 ([2]; primary qHTS): Inactive^b; AR-luc Primary Assay EC50 (AR (full receptor)): Inactive^b
CC1(C)[C@H](C(=O)O[C@H](C#N)c2cccc(Oc3ccccc3)c2)[C@@H]1C=C(Br)Br [Deltamethrin]	Inactive	AR-bla Primary Assay EC50 ([2]; primary qHTS): Inactive^b; AR-luc Primary Assay EC50 (AR (full receptor)): Inactive^b
CC(=O)O[C@]1(C(C)=O)CC[C@H]2[C@@H]3C[C@H](C)C4=CC(=O)CC[C@]4(C)[C@H]3CC[C@@]21C [Medroxyprogesterone acetate]	Agonist	–
Clc1ccc(C(c2ccc(Cl)cc2)C(Cl)(Cl)Cl)cc1 [p,p’-DDT]	Inactive	–
C[C@]12CC[C@H]3C(=CCc4cc(O)ccc43)[C@@H]1CCC2=O [Equilin]	–	EC50 [2]: 19.5 µM; AR-bla Efficacy ([2]; Table 3, mean ± SD, n=3, relative to maximal efficacy of R1881): 31.53 ± 3.88%; AR-luc Efficacy (AR (full receptor)): 89.27 ± 18.86%; EC50 (AR (full receptor)): 6.31 ± 2.03 µM; FP Binding Efficacy (AR-LBD): −89.77 ± 13.22%; IC50 (AR-LBD): 21 ± 3.41 µM
C[C@]12CCC(=O)C[C@@H]1CC[C@@H]1[C@@H]2CC[C@]2(C)[C@@H](O)CC[C@@H]12 [5α-Dihydrotestosterone]	Agonist	–
C[C@]1(O)CC[C@H]2[C@@H]3CCC4=CC(=O)CC[C@]4(C)[C@@]3(F)[C@@H](O)C[C@@]21C [Fluoxymestrone]	Agonist	–
